We go through 13 molecules from PubChem BioAssay (NCI).

Where “and” joins values, the source holds several entries; their conditions need not be identical. Identical values can stand only once.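 48-hour exposure; five concentrations; linearly interpolated endpoints. Abbreviation: GI50, concentration required for 50% inhibition of growth. Definition used: TGI = concentration required for complete inhibition of growth.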

Some test systems named below: K-562 leukemia; MALME-3M melanoma; NCI-H23 lung; NCI-H522 lung; NCI/ADR-RES ovarian; PC-3 prostate; SK-MEL-2 melanoma; SK-MEL-28 melanoma; SNB-75 CNS; TK-10 renal.
What all share (assay): NCI anticancer screen, dose series, 48 h

Take `COC(=O)C(Cc1c(C2Nc3ccccc3C2CC(NC(=O)CNC(C)=O)C(=O)OC)[nH]c2ccccc12)NC(=O)CNC(C)=O` (configuration not stated): the TGI in the experiment on K-562 leukemia, with MALME-3M melanoma, with NCI-H23 lung, with NCI-H522 lung, in the experiment with NCI/ADR-RES ovarian and with PC-3 prostate was above 100 µM throughout. The TGI with SK-MEL-2 melanoma, with SK-MEL-28 melanoma, in the experiment with SNB-75 CNS and in the experiment on TK-10 renal was above 100 µM throughout.
Take `COC(=O)C1=C(C(=O)OC)C(C(=O)c2ccc(Br)cc2)N2N=C(c3ccc(Cl)cc3)C=CC12` (configuration not stated): the TGI in the experiment on K-562 leukemia, in the experiment on MALME-3M melanoma, in the experiment on NCI-H23 lung, with NCI-H522 lung, with NCI/ADR-RES ovarian and in the experiment with PC-3 prostate was above 100 µM throughout. Also, the TGI in the experiment on SK-MEL-2 melanoma, in the experiment on SK-MEL-28 melanoma, with SNB-75 CNS and in the experiment with TK-10 renal was above 100 µM throughout.
For `COC(=O)NCCc1[nH]nc2c1C(=O)C=C(N1CCOCC1)C2=O`, the TGI in the experiment on K-562 leukemia, with MALME-3M melanoma, with NCI-H23 lung, in the experiment with NCI-H522 lung, with NCI/ADR-RES ovarian and in the experiment on PC-3 prostate was above 100 µM throughout. The TGI in the experiment on SK-MEL-2 melanoma, in the experiment with SK-MEL-28 melanoma, in the experiment on SNB-75 CNS and in the experiment with TK-10 renal was above 100 µM throughout.
As to `COC(=O)/C(=C\Nc1cccc(C)n1)S(=O)(=O)c1ccc(C)cc1`, the TGI is 75.5 µM with K-562 leukemia; above 100 µM with MALME-3M melanoma; above 100 µM in the experiment on NCI-H23 lung; above 100 µM in the experiment with NCI-H522 lung; above 100 µM with NCI/ADR-RES ovarian; above 100 µM in the experiment on PC-3 prostate. Also, the TGI in the experiment with SK-MEL-2 melanoma, in the experiment with SK-MEL-28 melanoma, in the experiment on SNB-75 CNS and in the experiment on TK-10 renal was above 100 µM each time.
Take `CC(=O)OC(/C=C/c1ccccc1)P1(=O)N(CC(C)(C)C)[C@@H]2CCCC[C@H]2N1CC(C)(C)C` (some centres not stated): the TGI in the experiment with K-562 leukemia is 21.7 µM and 20.6 µM; with MALME-3M melanoma, 26.8 µM and 26.4 µM; in the experiment with NCI-H23 lung, 20.3 µM and 17.1 µM; in the experiment on NCI-H522 lung it was 13.3 µM and 12.8 µM; in the experiment with NCI/ADR-RES ovarian, 20.6 µM and 18.3 µM; in the experiment with PC-3 prostate it was 12.1 µM and 10.1 µM. In addition, the TGI with SK-MEL-2 melanoma is 24.3 µM and 18.5 µM; in the experiment on SK-MEL-28 melanoma, 34.4 µM and 28.5 µM; with SNB-75 CNS, 12.8 µM and 4.17 µM; in the experiment with TK-10 renal it was 22.4 µM and 16.6 µM. For the same molecule, the GI50 was 3.91 µM and 0.684 µM with SNB-75 CNS; 10.1 µM and 4.82 µM in the experiment with TK-10 renal.
For `O=C(O)c1cc2ccccc2c(N=Nc2ccc(S(=O)(=O)Nc3nccs3)cc2)c1O`, the TGI in the experiment with K-562 leukemia, with MALME-3M melanoma, in the experiment on NCI-H23 lung, in the experiment on NCI-H522 lung, in the experiment on NCI/ADR-RES ovarian and in the experiment with PC-3 prostate was above 100 µM in each case. Further, the TGI in the experiment with SK-MEL-2 melanoma, in the experiment on SK-MEL-28 melanoma, in the experiment with SNB-75 CNS and with TK-10 renal was above 100 µM each time.
Take `Oc1ccc(-c2nc(-c3cccnc3)c(-c3ccc(Cl)cc3)[nH]2)cc1O`: the TGI with K-562 leukemia is above 100 µM; in the experiment with MALME-3M melanoma, 27 µM; in the experiment with NCI-H23 lung, 23.9 µM; with NCI-H522 lung, 4.68 µM; in the experiment with NCI/ADR-RES ovarian, 32.5 µM; with PC-3 prostate it was 21.2 µM. For the same molecule, the TGI in the experiment with SK-MEL-2 melanoma came out at 31.8 µM; with SK-MEL-28 melanoma, 36.2 µM; in the experiment on SNB-75 CNS, 20.2 µM; in the experiment on TK-10 renal, 26.7 µM.
Regarding `CC[C@H](O)[C@H](C)C=C1SCCCS1`, the TGI with K-562 leukemia, in the experiment on MALME-3M melanoma, in the experiment with NCI-H23 lung, with NCI-H522 lung, in the experiment with NCI/ADR-RES ovarian and with PC-3 prostate was above 100 µM throughout. The TGI with SK-MEL-2 melanoma, with SK-MEL-28 melanoma, with SNB-75 CNS and with TK-10 renal was above 100 µM in each case.
As for `COC(=O)/C=C\n1c(C)cc(=O)[nH]c1=O`, the TGI with K-562 leukemia, in the experiment on MALME-3M melanoma, with NCI-H23 lung, in the experiment with NCI-H522 lung, in the experiment on NCI/ADR-RES ovarian and in the experiment on PC-3 prostate was above 100 µM throughout. Further, the TGI with SK-MEL-2 melanoma, in the experiment on SK-MEL-28 melanoma, with SNB-75 CNS and in the experiment with TK-10 renal was above 100 µM throughout.
Regarding `CCCCCCCCOC1C(O)C(O)C(O)C(O)C12CO2` (configuration not stated), the TGI in the experiment with K-562 leukemia was above 100 µM; in the experiment on MALME-3M melanoma it was above 100 µM; in the experiment with NCI-H23 lung, 31.3 µM; in the experiment on NCI-H522 lung it was above 100 µM; in the experiment on NCI/ADR-RES ovarian, above 100 µM; in the experiment on PC-3 prostate, above 100 µM. The TGI in the experiment on SK-MEL-2 melanoma, with SK-MEL-28 melanoma, in the experiment on SNB-75 CNS and with TK-10 renal was above 100 µM each time.
For the molecule `N#CCc1n[nH]c(Cc2ccccc2)n1`, the TGI in the experiment with K-562 leukemia, in the experiment with MALME-3M melanoma, with NCI-H23 lung, with NCI-H522 lung, in the experiment on NCI/ADR-RES ovarian and in the experiment on PC-3 prostate was above 100 µM in each case. The TGI in the experiment on SK-MEL-2 melanoma, in the experiment on SK-MEL-28 melanoma, in the experiment with SNB-75 CNS and with TK-10 renal was above 100 µM each time.
On to `O=C(c1ccccc1)N1CCN(C(=S)N(C(=O)c2ccccc2)c2ccccc2)C1=S`, for which the TGI in the experiment on K-562 leukemia was above 100 µM; with MALME-3M melanoma, 19.1 µM; in the experiment on NCI-H23 lung, 11.6 µM; in the experiment on NCI-H522 lung it was 6.9 µM; in the experiment with NCI/ADR-RES ovarian it was above 27.7 µM; with PC-3 prostate, 20.5 µM. Further, the TGI was 23.5 µM in the experiment on SK-MEL-2 melanoma, 9.55 µM with SK-MEL-28 melanoma, 6.56 µM in the experiment with SNB-75 CNS and 16.6 µM in the experiment on TK-10 renal.
`CCCN(CCCC(NC(C)=O)C(=O)NCc1ccccc1)C(=O)N(CCCl)N=O` (configuration not stated): the TGI was 87.6 µM with K-562 leukemia; 39.7 µM in the experiment with MALME-3M melanoma; 22.9 µM in the experiment on NCI-H23 lung; 29.2 µM with NCI-H522 lung; above 100 µM with NCI/ADR-RES ovarian; above 100 µM in the experiment with PC-3 prostate. For the same molecule, the TGI stood at 43.9 µM in the experiment with SK-MEL-2 melanoma, 35.1 µM with SK-MEL-28 melanoma, 39.8 µM in the experiment with SNB-75 CNS and 83.4 µM in the experiment with TK-10 renal.
